From US20080064736A1, “Substituted 2-Pyrrolidone Derivatives as Fungicides and Insecticides” (Bayer Cropscience AG, priority 2004, published 2008) come the findings set out here.

The structures appear in SMILES notation.

One data set relates to Botrytis cinerea. As to the kind of experiment: Botrytis test (beans)/protective. The data set is classed as in vivo. The note with it: protective, application rate 500 g/ha, lesion size 2 days after inoculation. The protocol:
Botrytis Test (Beans)/Protective
(§1) To produce a suitable preparation of active compound, 1 part by weight of active compound is mixed with the stated amounts of solvent and emulsifier, and the concentrate is diluted with water to the desired concentration.
To test for protective activity, young plants are sprayed with the preparation of active compound. After the spray coating has dried on, 2 small pieces of agar covered with growth of Botrytis cinerea are placed on each leaf. The inoculated plants are placed in a darkened chamber at 20° C. and a relative atmospheric humidity of 100%.
2 days after the inoculation, the size of the lesions on the leaves is evaluated. 0% means an efficacy which corresponds to that of the control, while an efficacy of 100% means that no disease is observed.

The test system of the next data set is sphaerotheca fuliginea. As to the kind of experiment: Sphaerotheca-test (cucumber). In kind it is in vivo. Conditions: protective, application rate 500 ppm, evaluated 7 days after inoculation.
A further data set has as its system Venturia inaequalis. As to the kind of experiment: Venturia test (apples)/protective. In kind it is in vivo. Conditions: protective, application rate 100 g/ha, evaluated 10 days after inoculation. The protocol:
Venturia Test (Apples)/Protective
as §1
To test for protective activity, young plants are sprayed with the preparation of active compound at the stated rate of application. After the spray coating has dried on, the plants are inoculated with an aqueous conidia suspension of the causal agent of apple scab (Venturia inaequalis) and then remain for 1 day in an incubation cabinet at approximately 20° C. and a relative atmospheric humidity of 100%.
The plants are then placed in a greenhouse at approximately 21° C. and a relative atmospheric humidity of approximately 90%.
The test is evaluated 10 days after the inoculation. 0% means an efficacy which corresponds to that of the control, while an efficacy of 100% means that no disease is observed.

The subject of a further data set is Podosphaera leucotricha. As to the kind of experiment: Podosphaera test (apple)/protective. In kind it is in vivo. The note with it: protective, application rate 100 g/ha, evaluated 7 days after inoculation. As for the experimental part:
Podosphaera Test (Apple)/Protective
as §1
To test for protective activity, young plants are sprayed with the preparation of active compound at the stated rate of application. After the spray coating has dried on, the plants are inoculated with an aqueous spore suspension of the causal agent of apple mildew (Podosphaera leucotricha). The plants are then placed in a greenhouse at approximately 23° C. and a relative atmospheric humidity of approximately 70%.
The test is evaluated 7 days after the inoculation. 0% means an efficacy which corresponds to that of the control, while an efficacy of 100% means that no disease is observed.

A further data set relates to Spodoptera frugiperda. The data set can be described thus: Spodoptera frugiperda-test (sensible strain). Conditions: cabbage leaves dipped, larvae, after six days. In kind it is in vivo. The protocol:
Spodoptera frugiperda-Test (Sensible Strain)
Pieces of cabbage leaves (Brassica oleracea) are treated by being dipped into the preparation of the active compound of the desired concentration and are infested with larvae of the fall army worm (Spodoptera frugiperda) as long as the leaves are still moist.
After six days the mortality in % is determined. 100% means that all the caterpillars have been killed; 0% means that none of the caterpillars have been killed.

The chromatographic logP is lipophilicity estimated from chromatographic retention.

Take `CCCCCC[C@@H]1C(=O)N[C@@]2([C@@H](O)C(C)C)C(=O)O[C@@]12C` [(1R,4S,5S)-4-hexyl-1-[(1S)-1-hydroxy-2-methylpropyl]-5-methyl-6-oxa-2-azabicyclo[3.2.0]heptane-3,7-dione]: the chromatographic logP was 2.79.

Turning to `CCCCCC[C@H]1C(=O)N[C@@]2([C@@H](O)C(C)C)C(=O)O[C@@]12C` [(1R,4R,5S)-4-hexyl-1-[(1S)-1-hydroxy-2-methylpropyl]-5-methyl-6-oxa-2-azabicyclo[3.2.0]heptane-3,7-dione], the chromatographic logP was 2.87.

As to `CCCCCC[C@H]1C(=O)N[C@@]2([C@@H](O)[C@@H]3C=CCCC3)C(=O)O[C@@]12C` [Example 1, (1R,4R,5S)-1-[(S)-(1S)-2-cyclohexen-1-yl(hydroxy)methyl]-4-hexyl-5-methyl-6-oxa-2-azabicyclo[3.2.0]heptane-3,7-dione], the efficacy result in the data set on Botrytis cinerea is “more than 90%”; in the data set on sphaerotheca fuliginea, 70%; with Venturia inaequalis it was 100%; in the data set on Podosphaera leucotricha, 100%. Also, the “efficacy (mortality)” value with Spodoptera frugiperda worked out at 100%.

In the case of `CCCCCC[C@H]1C(=O)N[C@@]2([C@@H](O)C(C)C)C(=O)O[C@@]12C` [Example 8, (1R,4R,5S)-4-hexyl-1-[(1S)-1-hydroxy-2-methylpropyl]-5-methyl-6-oxa-2-azabicyclo[3.2.0]heptane-3,7-dione], the efficacy with sphaerotheca fuliginea is 70%.
